{"source": "paper PMC9627135", "about": "(Cancer discovery, 2022)", "key": {"HOXA9/10 expression": {"tested_on": "HOXA9/10 expression", "assay": "Time course of HOXA9/10 expression", "assay_type": "cell-based", "conditions": "Supplementary Fig. S6D, S6E"}, "[1]": {"tested_on": "primary human hepatocytes", "conditions": "cited from earlier work"}, "ENL-FKBP12(F36V)": {"target": "ENL-FKBP12(F36V) (Homo sapiens, UniProt Q03111)", "assay": "dTAG-mediated degradation of ENL-FKBP12", "assay_type": "cell-based", "conditions": "treatment for 6 or 24 hours"}}}
{"smiles": "CC(C)N(C[C@H]1O[C@@H](n2cnc3c(N)ncnc32)[C@H](O)[C@@H]1O)[C@H]1C[C@@H](CCc2nc3cc(C(C)(C)C)ccc3[nH]2)C1", "note": "[EPZ-5676]", "values": [{"measurement": "kinetics of suppression of HOXA9/10 expression", "setting": "HOXA9/10 expression", "result": "suppressed expression of the same genes at much later time points"}]}
{"smiles": "C[C@H]1CCCN1Cc1nc2cc(NC(=O)c3ccc4c(cnn4C)c3)ccc2[nH]1", "note": "[SGC-iMLLT]", "values": [{"measurement": "half-life in primary human hepatocytes", "setting": "[1]", "result": "modest half-life"}]}
{"smiles": "CC[C@H](C(=O)N1CCCC[C@H]1C(=O)O[C@H](CCc1ccc(OC)c(OC)c1)c1ccccc1OCC(=O)NCCCCCCOc1cccc2c1C(=O)N(C1CCC(=O)NC1=O)C2=O)c1cc(OC)c(OC)c(OC)c1", "note": "(stereo partly drawn) [dTAG13]", "values": [{"measurement": "level of ENL-FKBP12 proteins", "setting": "ENL-FKBP12(F36V)", "result": "substantial decrease of ENL-FKBP12 proteins"}]}
